“Also recorded” adds a separate entry of the source.
Assays:
[1] = tested on: weanling pigs; details: pig, in vivo
[2] = tested on: male Sprague-Dawley rats; details: rat, in vivo
[3] = tested on: Sprague-Dawley rats; details: rat, in vivo

Row | SMILES | emesis [1] | food consumption in the AM meal following the AM treat [1] | persistence of the effect on food consumption [1] | food consumption [2] | food consumption and weight gain [2] | weight gain [2] | induction of fed pattern of gut motility [3] | delay before effect on the fasting pattern [3] | effect on fasting pattern of gut motility [3] | duration of action [3] [min] | onset time after administration [3] [s]
1 | CC1=C[C@H]2O[C@@H]3[C@H](O)C[C@](C)([C@@]2(CO)[C@H](O)C1=O)[C@]31CO1 [DON, 3α,7α,15-trihydroxy-12,13-epoxy-trichothec-9-en-8-one] | some emesis | decreased food consumption | wore off by the next meal | decrease | immediate and sustained reduction; also recorded: concentration-dependant reduction | decrease | induced the fed pattern |  |  |  | 
2 | C[C@@H]1C[C@H]2O[C@@H]3[C@H](O)C[C@](C)([C@]24COC(c2ccccc2)O[C@@H]4[C@@H]1O)[C@@]3(C)O (stereo partly drawn) [EN139502, 7α,15-benzylidene-9α,12β-dimethyltrichothecan-3α,8α,12α-triol] |  |  |  |  |  |  | did not induce the fed pattern | approximately 5 min | intensify or enhance the fasting pattern |  | 
3 | C[C@@H]1C[C@H]2O[C@@H]3[C@H](O)C[C@](C)([C@]24COC(c2ccccc2)O[C@@H]4C1=O)[C@@]3(C)O (stereo partly drawn) [EN139522, 7α,15-benzylidene-9α,12β-dimethyl-3α,12α-dihydroxytrichothecan-8-one] |  |  |  |  |  |  | induce a classic fed pattern |  |  | 35 | 20

From patent publication EP1366052B1 (priority 2001, dated 2002)
